Assay results reported in EPA's ToxRefDB 2.

Key:
dog [1] = conditions: Sub-acute repeat dose toxicity, beagle, Oral, Capsule, dose end: 5 week, group: systemic
dog [2] = conditions: Other (NonGuideline or Guideline Not Listed); beagle; Oral; Capsule; dose end: 3 day; group: cannot be grouped; systemic / in life observation / clinical signs / emesis
rabbit = conditions: Subchronic dermal toxicity, new zealand white, Topical, dose end: 90 day, group: systemic, systemic / in life observation / clinical signs / erythema
rat [3] = conditions: Subchronic oral toxicity in rodents, sprague dawley, Gavage/Intubation, dose end: 90 day, group: systemic
rat [4] = conditions: Neurotoxicity screening battery; sprague dawley; Oral; Gavage/Intubation; dose end: 13 week; group: cannot be grouped; systemic / in life observation / body weight / body weight gain + systemic / in life observation / clinical signs / red or crusty deposits …
rat [5] = conditions: Subchronic oral toxicity in rodents, wistar, Feed, dose end: 3 month, group: systemic
rat [6] = conditions: Prenatal developmental toxicity study, other, Oral, Gavage/Intubation, dose end: 15 GD
mouse = conditions: Combined chronic toxicity/carcinogenicity; other; Oral; Feed; dose end: 24 month; group: systemic; systemic / clinical chemistry / alanine aminotransferase (alt/sgpt) / alanine aminotransferase (alt/sgpt) + systemic / clinical chemistry / …
dog [7] = conditions: Chronic toxicity, beagle, Oral, Feed, dose end: 104 week, group: systemic
rat [8] = conditions: Combined chronic toxicity/carcinogenicity; other; Oral; Feed; dose end: 2 year; group: systemic; systemic / clinical chemistry / alanine aminotransferase (alt/sgpt) / alanine aminotransferase (alt/sgpt) + systemic / clinical chemistry / …
dog [9] = conditions: Subchronic oral toxicity in nonrodent, beagle, Feed, dose end: 90 day, group: systemic, systemic / clinical chemistry / alkaline phosphatase (alp/alk) / alkaline phosphatase (alp/alk) + systemic / in life observation / body …
rat [10] = conditions: Subchronic oral toxicity in rodents, sprague dawley, Feed, dose end: 13 week, group: systemic
[11] = systemic / clinical chemistry / cholesterol / cholesterol + systemic / hematology / erythrocyte (rbc) count differential / erythrocyte (rbc…
[12] = systemic / pathology microscopic / testes / degeneration
[13] = systemic / organ weight / liver / relative to body weight
[14] = systemic / clinical chemistry / glutamate dehydrogenase / glutamate dehydrogenase
[15] = systemic / clinical chemistry / glutamate dehydrogenase / glutamate dehydrogenase + systemic / clinical chemistry / cholesterol / …
[16] = group: developmental, developmental / developmental malformation / bone / full supernumerary
[17] = group: developmental, developmental / developmental malformation / bone / full supernumerary + developmental / developmental malformation / kidney / dilated renal…
[18] = group: maternal, systemic / in life observation / body weight / body weight gain + systemic / in life observation / clinical signs / alopecia + systemic / in…
[19] = systemic / clinical chemistry / aminopyrine-n-demethylase / aminopyrine-n-demethylase
[20] = systemic / clinical chemistry / aminopyrine-n-demethylase / aminopyrine-n-demethylase + systemic / clinical chemistry / cytochrome p450, nos…
[21] = systemic / clinical chemistry / fatty acids / non-esterified (free) fatty acids + systemic / clinical chemistry / triglycerides / …

Work on `NC(=O)c1nc(-c2cccc(-c3cc(F)ccc3OCC(F)(F)C(F)(F)F)c2)n[n-]1.O.[K+]` [MK-274] yielded an LOAEL (dog [1]; [11]) of over 450 mg/kg/day, an NOAEL (dog [1]; [11]) of at least 450 mg/kg/day and an LEL (dog [1]; [12]) of 10 mg/kg/day. It also gave an NEL (dog [1]; [12]) of under 10 mg/kg/day, an LEL (dog [2]) of 240 mg/kg/day and an LOAEL (dog [2]) of over 400 mg/kg/day. For the same compound, the NEL (dog [2]) was under 240 mg/kg/day and the NOAEL (dog [2]) was at least 400 mg/kg/day.
In the case of `CN(C)C(=S)[S-].[Na+]` [Sodium dimethyldithiocarbamate], the LEL (rabbit) was 50 mg/kg/day, the LOAEL (rabbit) was 50 mg/kg/day and the NEL (rabbit) was under 50 mg/kg/day. The NOAEL (rabbit) was under 50 mg/kg/day, the LOAEL (rat [3]; systemic / clinical chemistry / alkaline phosphatase (alp/alk) / alkaline phosphatase (alp/alk) + systemic / clinical chemistry / glucose / …) was 250 mg/kg/day and the LEL (rat [3]; [13]) was 0.5 mg/kg/day. It also gave an NEL (rat [3]; [13]) of under 0.5 mg/kg/day, an NOAEL (rat [3]; systemic / organ weight / liver / relative to body weight + systemic / clinical chemistry / alkaline phosphatase (alp/alk) / alkaline …) of 5 mg/kg/day and an LEL (rat [4]) of 250 mg/kg/day. The LOAEL (rat [4]) was 250 mg/kg/day, the NEL (rat [4]) was 5 mg/kg/day and the NOAEL (rat [4]) was 5 mg/kg/day.
With `CC(C)(C)C(O)C(Oc1ccc(Cl)cc1)n1cncn1` (configuration not stated) [Triadimenol] the LEL (rat [5]; [14]) was 30 mg/kg/day, the LOAEL (rat [5]; [14]) was 30 mg/kg/day and the NEL (rat [5]; [15]) was 7.5 mg/kg/day. The NOAEL (rat [5]; [15]) was 7.5 mg/kg/day, the LEL (rat [6]; [16]) was 60 mg/kg/day and the LOAEL (rat [6]; [16]) was 60 mg/kg/day. It also gave an NEL (rat [6]; [17]) of 25 mg/kg/day, an NOAEL (rat [6]; [17]) of 25 mg/kg/day and an LOAEL (rat [6]; group: maternal, systemic / in life observation / body weight / body weight gain) of 15 mg/kg/day. For the same compound, the NEL (rat [6]; [18]) was 5 mg/kg/day, the NOAEL (rat [6]; [18]) was 5 mg/kg/day and the LEL (rat [6]; group: maternal, systemic / in life observation / body weight / body weight gain + systemic / in life observation / food consumption / food consumption) was 15 mg/kg/day. The LEL (mouse) was 71.4 mg/kg/day, the LOAEL (mouse) was 71.4 mg/kg/day and the NEL (mouse) was 17.9 mg/kg/day. For the same compound, the NOAEL (mouse) was 17.9 mg/kg/day, the LEL (dog [7]; [19]) was 211 mg/kg/day and the LOAEL (dog [7]; [19]) was 211 mg/kg/day. For the same compound, the NEL (dog [7]; [20]) was 56 mg/kg/day, the NOAEL (dog [7]; [20]) was 56 mg/kg/day and the LEL (rat [8]) was 25 mg/kg/day. The LOAEL (rat [8]) was 25 mg/kg/day, the NEL (rat [8]) was 6.25 mg/kg/day and the NOAEL (rat [8]) was 6.25 mg/kg/day. The LEL (dog [9]) was 44.2 mg/kg/day, the LOAEL (dog [9]) was 44.2 mg/kg/day and the NEL (dog [9]) was under 44.2 mg/kg/day. For the same compound, the NOAEL (dog [9]) was under 44.2 mg/kg/day, the LOAEL (rat [10]; [21]) was 208 mg/kg/day and the NEL (rat [10]; [21]) was 8 mg/kg/day. For the same compound, the NOAEL (rat [10]; [21]) was 39.6 mg/kg/day and the LEL (rat [10]; systemic / organ weight / liver / absolute + systemic / organ weight / liver / relative to body weight + systemic / pathology microscopic / …) was 39.6 mg/kg/day.
